The values below come from US20050124683A1, “HIV protease inhibitors, compositions containing the same, their pharmaceutical uses and materials for their synthesis” (priority 2003, published 2005).

For assay [1], the system named is HIV-1. Put plainly: Antiviral EC50 in HIV-infected T-cell lines (CPE inhibition / susceptibility assays). Format: cell-based. Conditions: Human immunodeficiency virus 1, T-cell, read-out: EC50 (wt) (nm), wt virus. Here is the method:
T-cell lines, CEM-SS, and MT-2, and viruses HIV-1 RF and HIV-1 NL4-3 (pNL4-3) were obtained from the National Institutes of Health (AIDS Research and Reference Reagent Program, Bethesda, MD).
The ability of compounds to protect cells against HIV infection was measured by the […] dye reduction method, essentially as described (See Pauwels, R. Balzarini, J. Baba, M. Snoeck, R. Schols, D. Herdewijn, P. Desmyter, J. and De Clercq, E. 1988, “Rapid and automated tetrazolium-based colorimetric assay for the detection of anti-HIV compounds,”. J Virol. Methods., 20: 309-321 and Weislow, O. S. Kiser, R. Fine, D. L. Bader, J. Shoemaker, R. H. and Boyd, M. R. 1989. “New soluble-formazan assay for HIV-1 cytopathic effects: application to high-flux screening of synthetic and natural products for AIDS-antiviral activity”. J. Natl. Cancer Inst. 81:577-586). Subject cells were infected with test virus at an moi of 0.025 to 0.819 or mock infected with medium only and added at 2×10^4 cells per well into 96 well plates containing half-log dilutions of test compounds. Six days later, 50 μl of XTT (1 mg/ml XTT tetrazolium, […] phenazine methosulfate) was added to the wells and the plate was reincubated for four hours. Viability, as determined by the amount of XTT formazan produced, was quantified spectrophotometrically by absorbance at 450 nm. Data from CPE assays were expressed as the percent of formazan produced in compound-treated cells compared to formazan produced in wells of uninfected, compound-free cells. The fifty percent effective concentration (EC50) was calculated as the concentration of compound that effected an increase in the percentage of formazan production in infected, compound-treated cells to 50% of that produced by uninfected, compound-free cells. The 50% cytotoxicity concentration (CC50) was calculated as the concentration of compound that decreased the percentage of formazan produced in uninfected, compound-treated cells to 50% of that produced in uninfected, compound-free cells. The therapeutic index was calculated by dividing the cytotoxicity (CC50) by the antiviral activity (EC50).
Compounds were tested in phenotypic susceptibility assays at Virologic, Inc., (See Petropoulos C. J., Parkin N. T., Limoli K. L., Lie Y. S., Wrin T., Huang W., Tian H., Smith D., Winslow G. A., Capon D J, Whitcomb J M. 2000, “A novel phenotypic drug susceptibility assay for human immunodeficiency virus type 1,” Antimicrob Agents Chemother 44(4):920-928) or using the assay described here. MT-2 cells were infected with either HIV-1 NL4-3 or HIV-1 NL4-3(I84V/L90M) and incubated in the presence of serial 0.5 log dilutions of test compounds. Three days later, culture supernatants were collected and virus production, as determined by p24 ELISA, was assayed. Percent inhibition was calculated as p24 concentration in compound-treated samples as compared to infected, compound-free controls. Inhibition of viral replication is determined by measuring reduction in HIV p24 present in the culture supernatant, using a Beckman-Coulter p24 HIV-1 Ag EIA kit and following the supplied protocol. Absorbance is read on a MRX microplate reader (Dynex Technologies). The EC50 was calculated as the concentration of compound that effected a decrease in the p24 production by infected, compound-treated cells to 50% of that produced by infected, compound-free cells.

Assay [2] deals with T1, HIV-1 protease (Human immunodeficiency virus type 1 group M subtype B, UniProt P04585, Q495S).
T1 construct: made in house
Put plainly: HIV-1 Protease RET assay (Ki, resonance energy transfer). Format: biochemical. Particulars: Q7S mutant HIV-1 protease; read-out: Ki (nm). Here is the method: Ki's for the inhibitors of HIV-1 protease were determined using a resonance energy transfer (RET) assay. […] This enzyme is first partially purified as inclusion bodies from cell lysate. It is then solublized in 8M urea and passed through a Q-Sepharose column (Pharmacia) for further purification. To refold this protein, samples containing Q7S is dialyzed into 50 mM sodium phosphate pH 7.0, 50 mM NaCl, 10 mM DTT, and 10% glycerol.
The commercially available peptide substrate (Molecular Probes Cat. # H-2930) RE(EDANS)SQNYPIVQK(DABCYL)R is used to assess activity and Ki's. This peptide is cleaved quantitatively by HIV-1 Pr at the Tyr-Pro bond. The EDANS fluorophore absorbs at 340 nm and emits at 490 nm. The reaction is carried out in a 96 well plate in a total volume of 100 µL and is run for 12 minutes at 37C under steady-state conditions with 5 µM substrate and 2 nM active dimer enzyme concentration. The literature value Km for this substrate and enzyme is 103+/−8 μM (See Matayoshi, et al., “Novel Fluorogenic Substrates for Assaying Retroviral Proteases by Resonance Energy Transfer,” Science 247, 954 (1990)). The buffer for this reaction is 0.1M sodium acetate pH 4.8, 1M NaCl, 1 mM EDTA, 5 mM dithiothreitol, 10% dimethyl sulfoxide and 1 mg/ml bovine serum albumin. Inhibition curves are fit using the Morrison tight binding equation.

As usually defined, the EC50 is the concentration that produces a half-maximal response. As usually defined, the Ki is a dissociation constant, usually derived from enzyme kinetics or from competition with a known ligand. Take `CC[C@H](C)CNC(=O)[C@H]1N(C(=O)[C@@H](O)[C@H](Cc2ccccc2)NC(=O)c2cccc(O)c2C)CC(F)(F)C1(C)C` [drawing 143]: the EC50 in assay [1] was 11 nM. For the same compound, in assay [2], the Ki is below 0.1 nM.
